For orientation: IC50 means the concentration that inhibits the measured activity by half.

Beta-secretase 1, sequence (P56817 whole entry): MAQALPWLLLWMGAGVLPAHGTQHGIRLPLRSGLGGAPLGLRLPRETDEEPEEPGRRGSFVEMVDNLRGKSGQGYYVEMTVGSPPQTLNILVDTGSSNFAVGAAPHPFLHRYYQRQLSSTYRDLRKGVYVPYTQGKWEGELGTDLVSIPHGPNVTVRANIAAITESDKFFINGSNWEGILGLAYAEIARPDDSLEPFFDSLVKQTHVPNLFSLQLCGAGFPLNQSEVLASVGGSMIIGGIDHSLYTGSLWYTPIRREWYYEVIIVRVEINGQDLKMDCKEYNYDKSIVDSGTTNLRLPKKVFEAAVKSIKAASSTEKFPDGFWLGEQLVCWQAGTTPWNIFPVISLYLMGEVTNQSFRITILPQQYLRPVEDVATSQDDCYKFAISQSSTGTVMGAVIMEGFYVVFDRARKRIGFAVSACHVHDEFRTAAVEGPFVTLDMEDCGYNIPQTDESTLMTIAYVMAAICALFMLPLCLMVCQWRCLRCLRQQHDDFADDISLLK

This assay addresses Beta-secretase 1 (Homo sapiens, UniProt P56817). Put plainly: Inhibition of BACE1 in human H4 cells stably transfected with APP751 containing Swedish mutation assessed as reduction in Abeta (1 to 40) and Abeta (1 to 42) production incubated for 19 hrs. It counts as cell-based.
On to `CC#Cc1cncc(-c2csc([C@@H]3C[C@@H](c4c(C)noc4C)SC(N)=N3)c2)c1`, for which the 50% inhibitory concentration (IC50) amounted to 60 nM.

Turning to `Cc1noc(C)c1[C@@H]1C[C@@H](c2cc(-c3cccc(C#N)c3)cs2)N=C(N)S1`, the IC50 came out at 300 nM.

In the case of `Cc1noc(C)c1[C@@H]1C[C@@](C)(c2cc(-c3cncnc3)c(F)cc2F)N=C(N)S1`, the IC50 was found to be 8 nM.

For `CC#Cc1cncc(-c2cc(Cl)c([C@]3(C)C[C@@H](c4c(C)noc4C)SC(N)=N3)s2)c1`, the concentration for half-maximal inhibition (IC50) is 30 nM.

Turning to `Cc1noc(C)c1[C@@H]1C[C@@H](c2cc(-c3cncnc3)c(F)cc2F)N=C(N)S1`, the IC50 turned out to be 200 nM.

Regarding `Cc1noc(CC(C)(C)O)c1[C@@H]1C[C@@](C)(c2ccc(F)cc2F)N=C(N)S1`, the IC50 was 110 nM.

With `Cc1noc(C)c1[C@@H]1C[C@@H](c2cccc(-c3cncnc3)c2)N=C(N)S1`, the IC50 was determined as 230 nM.

As for `Cc1noc(C)c1[C@@H]1C[C@@](C)(c2cc(-c3cccnc3C#N)c(F)cc2F)N=C(N)S1`, the IC50 is 87 nM.

For the molecule `Cc1noc(C)c1[C@@H]1C[C@@H](c2cc(NC(=O)c3ccc(Br)cn3)ccc2F)N=C(N)S1`, the IC50 stood at 22 nM.

The values above are taken from ChEMBL document CHEMBL3425435, “4,6-Diarylaminothiazines as BACE1 Inhibitors and Their Use for the Reduction of Beta-Amyloid Production” (ACS Med Chem Lett, 2015).
